# Reference: PubChem BioAssay (NCI)
#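 In this assay, cells in 96-well plates receive the compound at five concentrations for 48 hours. Endpoints are linearly interpolated between the surrounding concentrations. TGI marks complete inhibition of growth.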
# Experiments:
# Assay in all cases: inhibition of tumour cell growth, NCI panel, 48 h
# [1] = test system: M14 melanoma
# [2] = test system: OVCAR-5 ovarian
# [3] = test system: OVCAR-3 ovarian
# [4] = test system: SF-539 CNS
# [5] = test system: HL-60(TB) leukemia
# [6] = test system: HCC-2998 colon
# [7] = test system: A498 renal
# [8] = test system: KM12 colon
# [9] = test system: MOLT-4 leukemia
# [10] = test system: SW-620 colon
# [11] = test system: DU-145 prostate
# [12] = test system: HT29 colon
# [13] = test system: HOP-92 NSCLC
# [14] = test system: HCT-116 colon
# [15] = test system: RXF 393 renal
# [16] = test system: MDA-MB-435
# [17] = test system: U251 CNS
# [18] = test system: PC-3 prostate
# [19] = test system: OVCAR-4 ovarian
SMILES,TGI [1],TGI [2],TGI [3],TGI [4],TGI [5],TGI [6],TGI [7],TGI [8],TGI [9],TGI [10],TGI [11],TGI [12],TGI [13],TGI [14],TGI [15],TGI [16],TGI [17],TGI [18],TGI [19]
CC1CCC2C(C(=O)O[C@H]3C4CCO[C@@H](OC5OC(CO)C(O)C(O)C5O)C4[C@@]4(CO)O[C@@H]34)=CO[C@@H](OC3OC(CO)C(O)C(O)C3O)C12 (stereo not given in full),> 10 µM,> 10 µM,> 10 µM,> 10 µM,> 10 µM,> 10 µM,> 10 µM,> 10 µM,> 10 µM,> 10 µM,> 10 µM,> 10 µM,> 10 µM,> 10 µM,> 10 µM,> 10 µM,> 10 µM,> 10 µM,
CCCCCCCCCCCCCCCCCCOCC(CO[P+](=O)O)OCCCCCCCCCCCCCCCCCC (stereo not given),> 50 µM,> 50 µM,> 50 µM,> 50 µM,> 50 µM,> 50 µM,> 50 µM,> 50 µM,> 50 µM,> 50 µM,> 50 µM,> 50 µM,> 50 µM,> 50 µM,> 50 µM,> 50 µM,> 50 µM,> 50 µM,> 50 µM
O=C(O)c1ccc(C(c2c(O)c3ccccc3oc2=O)c2c(O)c3ccccc3oc2=O)cc1,> 100 µM,> 100 µM,> 100 µM,> 100 µM,0.129 µM,> 100 µM,> 100 µM,> 100 µM,> 100 µM,> 100 µM,> 100 µM,> 100 µM,6.04 µM,> 100 µM,> 100 µM,> 100 µM,> 100 µM,> 100 µM,
CN(C)c1ccc(/C=C(\NC(=O)c2ccccc2)C(=O)NC(CCC(=O)O)C(=O)O)cc1 (stereo not given),> 100 µM,> 100 µM,> 100 µM,> 100 µM,> 100 µM,> 100 µM,> 100 µM,> 100 µM,> 100 µM,> 100 µM,> 100 µM,> 100 µM,> 100 µM,> 100 µM,> 100 µM,> 100 µM,> 100 µM,> 100 µM,> 100 µM
CC(=O)N[C@H]1CCCC[C@@H]1OC(C)=O,,> 100 µM,> 100 µM,,> 100 µM,> 100 µM,> 100 µM,> 100 µM,> 100 µM,> 100 µM,> 100 µM,> 100 µM,> 100 µM,> 100 µM,> 100 µM,> 100 µM,> 100 µM,> 100 µM,> 100 µM
CC(CO)C1=CC(C#CCOCc2ccccc2)N(C(=O)Oc2ccccc2)c2ccccc21 (stereo not given),> 100 µM,> 100 µM,88.2 µM,> 100 µM,> 100 µM,> 100 µM,24.2 µM,82.9 µM,> 100 µM,> 100 µM,> 100 µM,> 100 µM,61.7 µM,> 100 µM,23 µM,47.9 µM,> 100 µM,> 100 µM,20.7 µM
O=[N+]([O-])c1cc(Cl)cc2cc(Cl)cnc12,> 100 µM,> 100 µM,> 100 µM,> 100 µM,> 100 µM,> 100 µM,> 100 µM,,> 100 µM,> 100 µM,> 100 µM,> 100 µM,> 100 µM,> 100 µM,> 100 µM,> 100 µM,> 100 µM,> 100 µM,> 100 µM
CCN(CC)CCCNc1nc2ccccc2c2[nH]c3ccc(OC)cc3c12,3.1 µM,3.18 µM,> 10 µM,3.67 µM,3.02 µM,2.33 µM,5.27 µM,2.03 µM,1.69 µM,2.37 µM,8.44 µM,2.05 µM,9.53 µM,1.95 µM,2.96 µM,2.99 µM,3.23 µM,2.73 µM,2.64 µM
CCOC(=O)CCC(NC(=O)Cc1ccc(Oc2nc3ccccc3nc2-c2cccs2)cc1)C(=O)OCC (stereo not given),> 100 µM,> 100 µM,29.2 µM,26.3 µM,> 100 µM,> 100 µM,84.1 µM,> 100 µM,> 100 µM,> 100 µM,> 100 µM,> 100 µM,47.7 µM,> 100 µM,27.5 µM,> 100 µM,87.1 µM,> 100 µM,94 µM
COc1cc([C@@H]2c3[nH]c4ccccc4c3C(Nc3ccc([N+](=O)[O-])cc3)[C@H]3COC(=O)N23)cc(OC)c1O (stereo not given in full),2.2 µM,2.06 µM,1.98 µM,0.302 µM,0.048 µM,20.3 µM,0.653 µM,2.71 µM,0.289 µM,,0.744 µM,,1.96 µM,1.42 µM,1.04 µM,2.45 µM,1.4 µM,7.88 µM,5.91 µM
CCOC(=O)CCC(NC(=O)c1ccc(Nc2nc3ccccc3nc2-c2cccs2)cc1)C(=O)OCC (stereo not given),> 100 µM,> 100 µM,> 100 µM,> 100 µM,> 100 µM,> 100 µM,> 100 µM,> 100 µM,> 100 µM,> 100 µM,> 100 µM,> 100 µM,> 100 µM,> 100 µM,> 100 µM,> 100 µM,> 100 µM,> 100 µM,> 100 µM
O=C(OCC1OC(c2nn[nH]n2)C(OC(=O)c2ccccc2)C1OC(=O)c1ccccc1)c1ccccc1 (stereo not given),,> 100 µM,> 100 µM,> 100 µM,> 100 µM,> 100 µM,> 100 µM,> 100 µM,> 100 µM,> 100 µM,> 100 µM,> 100 µM,> 100 µM,> 100 µM,> 100 µM,> 100 µM,> 100 µM,> 100 µM,> 100 µM
